Legend:
[1] = tested on: trypsin inhibitor; test: Activation of trypsin inhibitor in roses (Example 6); type: in vivo, white miniature roses (Parade Rose); conditions: 48 hours, FIG. 6; for proteinase (trypsin) inhibitor activity: 5.0 mM foliage spray plus root drench
Experimental: Potted plants of white miniature roses, marketed as Parade Rose® received one of three treatments. Roses were treated by (1) spraying the foliage of each plant to the point of drip to ensure maximum coverage; and (2) pouring 50 ml of the formulation into the soil within the root zone. There were three plants per treatment. 48 hours after treatment, all leaves from the entire plant were collected and pooled for analysis of trypsin inhibitor activity. Leaf extracts were prepared by adding 25 ml of 0.4 M sodium phosphate, pH 9, extraction buffer and 3 ml of 10% Triton® X-100 and grinding in a blender. The extract was filtered through four layers of cheesecloth. One milliliter of extract was spun at 2000×g for 15 minutes at 4-degrees and the resulting supernatant was frozen until the assay could be completed.
For the trypsin assay, rose extracts were thawed and replicates of 1, 2, and 3 μl for each extract were added to trypsin assay solution containing p-toluene-sulfonyl-L-arginine methyl ester (TAME) as the trypsin substrate. The level of trypsin activity was measured and reflects trypsin inhibition by trypsin inhibitor. Data is shown in FIG. 6, a graph of the results, and is presented as the mean and SEM of % remaining trypsin activity per gram fresh weight for 1, 2, and 3 μl. In FIG. 6, lower values represent greater trypsin inhibitor activity.

[2] = tested on: aphids; test: Field study of aphid infestations in roses (Example 7); type: in vivo, aphids on 'Mr. Lincoln' roses; conditions: for concentration at which more efficacious against aphids: 1.5 mM vs 5 mM; for incidence of aphids on roses: foliar spray every 10-13 days, height of aphid pressure, FIGS. 7 and 8
Experimental: Potted roses of the cultivar ‘Mr. Lincoln’ were treated with 9 treatment samples (8 formulations and one untreated control). For each treatment sample, three plots having three plants each were treated, for a total of 9 plants per treatment. Roses were treated every 10-13 days by spraying the foliage of each plant to the point of drip to ensure maximum coverage. The plants were evaluated at approximately 10-day intervals for the number of aphids on each plant. Table 8 below includes the descriptions of the test formulations.
FIGS. 7 and 8 are two representations of the same data, taken at the height of aphid pressure. FIG. 7 is a histogram representing mean and SEM aphid counts on the roses with the various formulations. In FIG. 8, each data point represents the number of aphids on a single plant.

[3] = tested on: damping off disease; test: Observational decrease in disease in tomato seedlings (Example 8); type: in vivo; conditions: 1.5 mM MDHJ, 0.5% canola oil, 0.125% Triton X-100 foliar spray; 17th day after treatment
Experimental: FIG. 9 is a photograph of an untreated tomato seedling, illustrating the damping off disease on the leaves;
One group of tomato seedlings was treated with a formulation comprising 1.5 mM MDHJ, 0.5% canola oil, and 0.125% Triton® X-100 by spraying the foliage until the point of dripping. Another group of tomato seedlings was left untreated. Plants from each group were isolated in respective Plexiglas boxes. Photographs of the plants were taken on the 17th day after treatment. One plant in each treatment group had died.

[4] = tested on: cell suspension cultures of E. californica; conditions: cited from earlier work
[5] = tested on: proteinase inhibitor I and II; test: Proteinase inhibitor I and II induction in tomato seedlings, radial immunodiffusion assay, 24 h (Example 1); type: in vivo; conditions: 1.5 mM in water, FIG. 1
Experimental: Seven test samples or groups were prepared using two week old tomato seedlings. The descriptions of the treatments given to each test sample can be found in Table 2 below. Liquid formulations were applied by spraying three squirts to the foliage with a spray bottle. Eight plants per treatment (four pots per treatment, each pot containing two seedlings) were sprayed with each test formulation. Plants from each treatment were isolated in enclosed Plexiglas boxes and placed overnight in a light- and temperature-controlled growth chamber (i.e., plants given the same treatment were isolated together in a single Plexiglas box; plants given different treatments were in different boxes). Twenty-four hours after treatment, each plant was assayed for proteinase inhibitor I and II production by a radial immunodiffusion assay using anti-inhibitor antibodies (Ryan, C. A., Analytical Biochemistry 19 (1967), pp. 424-440, the contents of which are incorporated by reference in their entirety). [table] The results for each of the test samples are shown in FIG. 1, a graph in which proteinase inhibitor levels (PI-I and PI-II) are reported in micrograms of proteinase inhibitor per milliliter of leaf extract for each test sample. The two plants per pot were pooled to give one data point per pot (i.e., four data points total were collected per treatment).

[6] = tested on: Polyphenol Oxidase (PPO); test: Polyphenol oxidase (PPO) induction in tomato plants (Example 2); type: in vivo; conditions: tomato seedlings, 1.5 mM + 0.5% canola oil + 0.125% Triton X-100, 24 hours; FIG. 2
Experimental: Three test samples were prepared using tomato seedlings. The descriptions of the treatments given to each test sample can be found in Table 3 below.
Liquid formulations were applied by spraying three squirts to the foliage with a spray bottle. Seedlings from each treatment were isolated in plastic boxes (i.e., as in Example 1, plants given the same treatment were isolated together). Polyphenol oxidase assays were carried out on the entire foliage of each plant 24 hours after application (Stout, M. J., Brovont, R. A., and Duffey, S. S., J. Chemical Ecology 24:6, pp. 946-963, the contents of which are incorporated by reference in their entirety).
The assay procedure was as follows. Tomato leaflets were weighed and ground in 1 ml of ice-cold extraction buffer (0.1M sodium phosphate buffer, pH 7, containing 3.5% polyvinylpolypyrolidine). Following grinding, 0.4 ml of 10% Triton® X-100 was added to the leaf homogenate, mixed and centrifuged for 15 minutes at 2000×g at 4-degrees. Fifteen microliters of the resulting supernatant was added to 1 ml of PPO Assay Buffer (2.92 mM caffeic acid in pH 7 sodium phosphate buffer) and the change in absorbance at A470 was recorded every minute for 10 minutes. Change in absorbance rate (OD A470/min/g protein) reflects the rate of formation of a compound produced by the activity of PPO. […]

[7] = tested on: gene expression; conditions: tobacco plants; cited from earlier work
[8] = tested on: powdery mildew; test: Treatment and control of powdery mildew in roses (Example 10); type: in vivo, powdery mildew on 'Mr. Lincoln' roses; conditions: beyond disease levels measured prior to first treatment
Experimental: Outdoor potted roses of the cultivar ‘Mr. Lincoln’ were treated with 9 treatment samples (8 formulations and one untreated control). For each treatment sample, three plots having three plants each were treated for a total of 9 plants per treatment. Roses were treated every 2 weeks by spraying the foliage of each plant to the point of drip to ensure maximum coverage. Plants were initially evaluated for powdery mildew incidence and severity prior to the first treatment of the trial. […] Subsequent evaluations followed every 10 days for 2 months. Evaluations consisted of evaluating 60 individual leaves per plot (20 leaves were collected from 3 rose plants per plot) for disease incidence and severity. Disease incidence was determined by counting the number of leaves infected. Disease severity was determined as the percentage of leaf surface infected with the disease. Analysis of Variance was calculated for both severity and incidence. Table 11 below describes the mean number of leaves found to be infected with powdery mildew for each treatment group on respective evaluation days. […] FIG. 15 is a graph illustrating the percentage of leaves infected in each treatment group. In FIG. 15, the individual bars within each treatment represent successive evaluations on days 1, 11, 21, 31, 41, 52, and 62.

[9] = tested on: Polyphenol Oxidase; test: Activation of polyphenol oxidase in field-grown roses (Example 4); type: in vivo, 'Julia Child' roses; conditions: FIG. 5; for PPO activity: 5 mM + 0.5% canola oil + 0.125% Triton X-100, 44 hours, caffeic acid substrate
Experimental: Field grown 1-year old ‘Julia Child’ roses were treated with foliar sprays of two different formulations. Roses were treated by spraying the foliage of each plant to the point of drip to ensure maximum coverage. There were three plants per treatment. 44 hours after application, 3 young leaves from each plant (each leaf from a different stem and all leaves at the same stage of development) were collected and pooled for analysis of PPO activity as in Example 2 above, except that 0.5 ml of ice cold extraction buffer were used, followed by addition of 160 μl 10% Triton® X-100. 50 μl of the supernatant was added to 1 ml of PPO assay buffer. The formulations are set forth in Table 5 below, and the data is shown FIG. 5, a graph of PPO activity for the two formulations and an untreated control. Data are reported as mean and SEM for each treatment.

Row | SMILES | proteinase (trypsin) inhibitor activity [1] | enhancement of proteinase inhibitor activity compared with MJ ([1]; 5.0 mM) | concentration at which more efficacious against aphids [2] | incidence of aphids on roses [2] | signs of disease in seedlings [3] | concentration inducing benzo[c]phenanthridine alkaloid synthesis [4] [µM] | concentration relative to MJ required for the same effect [4] | proteinase inhibitor level compared with wounding response [5] | activation of PPO [6] | bioactivity relative to MJ [7] | progression of powdery mildew incidence [8] | PPO activity [9] | elicitation of plant defenses (PPO) compared with MJ ([9]; field-grown roses, 5 mM, 44 hours)
1 | CCCCCC1C(=O)CCC1CC(=O)OC (stereo not shown) [MDHJ, methyl dihydrojasmonate] | enhanced proteinase inhibitor activity | to a greater degree than MJ | more efficacious at the lower concentration of 1.5 mM | reduced aphid counts | did not show signs of disease | 10 | five times the concentration of MJ required to produce the same effect | much greater level than the plant's natural response to wounding | activate PPO | only a small fraction of the bioactivity of MJ | similarly effective in slowing the progression of powdery mildew incidence | increased PPO activity | equal to or better than the levels seen after MJ application
2 | CC/C=C\CC1C(=O)CCC1CC(=O)OC (stereo not shown) [MJ, methyl jasmonate, reference compound] | enhanced proteinase inhibitor activity | – | more efficacious at the higher concentration of 5 mM | reduced aphid counts | – | – | – | much greater level than the plant's natural response to wounding | – | – | similarly effective in slowing the progression of powdery mildew incidence | increased PPO activity | –
